SMILES strings stand for the structures. A value given as a limit tells only on which side of the number the result lay.

`Cc1c(NC(=O)c2ccc(-c3cccc(F)c3)cc2)ccc2cc(CN3CCCC3)cnc12` [Example 112, 3′-fluoro-N-[8-methyl-3-(1-pyrrolidinylmethyl)-7-quinolinyl][1,1′-biphenyl]-4-carboxamide] displayed a melting point of 158 to 159 °C. `Cc1c(NC(=O)c2ccc(-c3ccc(Cl)s3)cc2F)ccc2cc(CN3CCCCCC3)cnc12` (hydrate or solvate) [Example 186, N-[3-(1-azepanylmethyl)-8-methyl-7-quinolinyl]-4-(5-chloro-2-thienyl)-2-fluorobenzamide] had a melting point of 166 to 167 °C. The figure for `COc1ccc(-c2ccc(C(=O)Nc3ccc4cc(CN5CCCC5)cnc4c3C)cc2)cc1` [Example 18, 4′-methoxy-N-[8-methyl-3-(1-pyrrolidinylmethyl)-7-quinolinyl][1,1′-biphenyl]-4-carboxamide] is 210 to 213 °C. The same measure for `CN1CCc2nc3cc(NC(=O)c4ccc(-c5ccc(Cl)cc5)cc4)ccc3cc2C1` [Example 326, 4′-chloro-N-(2-methyl-1,2,3,4-tetrahydrobenzo[b][1,6]naphthyridin-7-yl)[1,1′-biphenyl]-4-carboxamide]: > 220 °C (dec.); for `Cc1c(NC(=O)c2ccc(-c3ccccc3)cc2)ccc2cc(CN3CCCC3)cnc12` [Example 17, N-[8-methyl-3-(1-pyrrolidinylmethyl)-7-quinolinyl][1,1′-biphenyl]-4-carboxamide]: 184 to 186 °C. The figure for `O=C(Nc1ccc2cc(CN3CCCC3)cnc2c1)c1ccc(-c2ccc(F)cc2)cc1F` [Example 86] is 177 °C; for `Cc1ccc(-c2ccc(C(=O)Nc3ccc4cc(CN5CCCC5)cnc4c3)cn2)cc1` [Example 10, 6-(4-methylphenyl)-N-[3-(1-pyrrolidinylmethyl)-7-quinolinyl]nicotinamide] it is 226 to 228 °C.

On to `O=C(Nc1cc2ncc(CN3CCCC3)cc2cc1F)c1ccc(-c2ccc(F)cc2)cc1` [Example 50, 4′-fluoro-N-[6-fluoro-3-(1-pyrrolidinylmethyl)-7-quinolinyl][1,1′-biphenyl]-4-carboxamide], for which the melting point lay within 198 to 200 °C.

In the case of `Cc1cc2cc(CN3CCCCCC3)cnc2cc1NC(=O)c1ccc(-c2ccc(Cl)cc2)cc1F` [Example 243, N-[3-(1-azepanylmethyl)-6-methyl-7-quinolinyl]-4′-chloro-3-fluoro[1,1′-biphenyl]-4-carboxamide], the melting point came out at 209 °C. The same measure for `CCNC(=O)CCCC1CCN(Cc2cnc3c(C)c(NC(=O)c4ccc(-c5ccc(F)cc5)cc4)ccc3c2)CC1` [Example 209, N-[3-({4-[4-(ethylamino)-4-oxobutyl]-1-piperidinyl}methyl)-8-methyl-7-quinolinyl]-4′-fluoro[1,1′-biphenyl]-4-carboxamide]: 217 to 220 °C; for `Cc1ccc(-c2ccc(C(=O)Nc3cc4ncc(CN5CCCC5)cc4cc3F)c(F)c2)cc1` [Example 61, 3-fluoro-N-[6-fluoro-3-(1-pyrrolidinylmethyl)-7-quinolinyl]-4′-methyl[1,1′-biphenyl]-4-carboxamide]: 179 to 181 °C; for `Cc1cc2cc(CN3CCCC3)cnc2cc1NC(=O)c1ccc(-c2ccc(C(F)(F)F)cc2)cc1` [Example 215, N-[6-methyl-3-(1-pyrrolidinylmethyl)-7-quinolinyl]-4′-(trifluoromethyl)[1,1′-biphenyl]-4-carboxamide]: 216 to 219 °C. The same measure for `Cc1c(NC(=O)c2ccc(-c3ccc(Cl)s3)cc2F)ccc2cc(CN3CCCCC3)cnc12` (hydrate or solvate) [Example 172, 4-(5-chloro-2-thienyl)-2-fluoro-N-[8-methyl-3-(1-piperidinylmethyl)-7-quinolinyl]benzamide]: 205 to 206 °C; for `Cc1c(NC(=O)c2ccc(-c3ccc(F)cc3)cc2)ccc2cc(CN3CCCCCC3)cnc12` [Example 180, N-[3-(1-azepanylmethyl)-8-methyl-7-quinolinyl]-4′-fluoro[1,1′-biphenyl]-4-carboxamide]: 166 to 168 °C. The figure for `Cc1c(NC(=O)c2ccc(-c3ccc(Cl)cc3)cc2F)ccc2cc(CN3CCCC3)cnc12` [Example 146, 4′-chloro-3-fluoro-N-[8-methyl-3-(1-pyrrolidinylmethyl)-7-quinolinyl][1,1′-biphenyl]-4-carboxamide] is 181 to 183 °C; for `Cc1cc2cc(CN3CCCC3)cnc2cc1NC(=O)c1ccc(-c2ccc3ccccc3c2)cc1` [Example 222, N-[6-methyl-3-(1-pyrrolidinylmethyl)-7-quinolinyl]-4-(2-naphthyl)benzamide] it is 194 °C; for `CCCC(=O)Oc1ccc(C(=O)Nc2ccc3cc(CN4CCCC4)cnc3c2C)cc1` [Example 331, 4-({[8-methyl-3-(1-pyrrolidinylmethyl)-7-quinolinyl]amino}carbonyl)phenyl butyrate] it is 156 to 158 °C.

Turning to `COc1ccc(-c2ccc(C(=O)Nc3ccc4cc(CN5CCCC5)cnc4c3)c(F)c2)cc1` [Example 87, 3-fluoro-4′-methoxy-N-[3-(1-pyrrolidinylmethyl)-7-quinolinyl][1,1′-biphenyl]-4-carboxamide], the melting point stood at 174 °C.

For the molecule `Cc1c(NC(=O)c2ccc(-c3cc4ccccc4o3)cc2F)ccc2cc(CN3CCCC3)cnc12` [Example 142, 4-(1-benzofuran-2-yl)-2-fluoro-N-[8-methyl-3-(1-pyrrolidinylmethyl)-7-quinolinyl]benzamide], the melting point was 202 to 203 °C. `Cc1c(NC(=O)c2ccc(-c3ccc(F)cc3)cc2)ccc2cc(CN3CCC(CC(=O)N4CCCCC4)CC3)cnc12` [Example 205, 4′-fluoro-N-[8-methyl-3-({4-[2-oxo-2-(1-piperidinyl)ethyl]-1-piperidinyl}methyl)-7-quinolinyl][1,1′-biphenyl]-4-carboxamide]: the melting point lay in the range of 189 to 190 °C. `CSc1ccc(-c2ccc(C(=O)Nc3ccc4cc(CN5CCCC5)cnc4c3C)cc2)cc1` (hydrate or solvate) [Example 110, N-[8-methyl-3-(1-pyrrolidinylmethyl)-7-quinolinyl]-4′-(methylsulfanyl)[1,1′-biphenyl]-4-carboxamide] returned a melting point of 206 to 208 °C. The figure for `O=C(Nc1cc2ncc(CN3CCCC3)cc2cc1F)c1ccc(-c2ccc(OC(F)(F)F)cc2)cc1` [Example 56, N-[6-fluoro-3-(1-pyrrolidinylmethyl)-7-quinolinyl]-4′-(trifluoromethoxy)[1,1′-biphenyl]-4-carboxamide] is 184 to 187 °C; for `Cc1ccc(-c2ccc(C(=O)Nc3cc4ncc(CN5CCCC5)cc4cc3F)cc2)cc1` [Example 54, N-[6-fluoro-3-(1-pyrrolidinylmethyl)-7-quinolinyl]-4′-methyl[1,1′-biphenyl]-4-carboxamide] it is 202 to 204 °C; for `Cc1cc2cc(CN3CCC(C(=O)N(C)C)CC3)cnc2cc1NC(=O)c1ccc(-c2ccc(F)cc2)cc1` [Example 274, 1-[(7-{[(4′-fluoro-1,1′-biphenyl-4-yl)carbonyl]amino}-6-methyl-3-quinolinyl)methyl]-N,N-dimethylpiperidine-4-carboxamide] it is 229 °C.

Broadly, the melting point is the temperature, or range, at which the solid turns liquid.

(Values after patent publication US7183415B2, “Quinoline compound” (Takeda Pharmaceutical Company Limited, priority 2001, dated 2007).)
